The text below walks through data of ChEMBL document CHEMBL3616432, “(+)-Dehydroabietylamine derivatives target triple-negative breast cancer” (Eur J Med Chem, 2015).

The test system of data set [1] is HEK293. In words: Cytotoxicity against HEK293 cells at 52 to 65 uM after 72 hrs by CellTiter-Glo assay. Format: cell-based. To be noted: human, hek293, 72 h. A general note: In ATP-based viability assays light output follows the ATP content of the culture.
For the next data set, the species on record is Homo sapiens. The experiment in a line: Antiproliferative activity against human ER-positive MA11 cells at 52 to 65 uM after 72 hrs by CellTiter-Glo assay. The format is functional.
The test system of data set [2] is MDA-MB-231. In words: Antiproliferative activity against human triple-negative MDA-MB-231 cells at 52 to 65 uM after 72 hrs by CellTiter-Glo assay. Format: functional, cell-based.
Data set [3] relates to HepG2. The experiment in a line: Cytotoxicity against human HepG2 cells at 52 to 65 uM after 72 hrs by CellTiter-Glo assay. The format is cell-based. The note with it: hepg2, 72 h.
A further data set has as its system MCF7. In words: Antiproliferative activity against human ER-positive MCF7 cells at 52 to 65 uM after 72 hrs by CellTiter-Glo assay. The format is functional, cell-based.
The subject of data set [4] is MDA-MB-231. The experiment in a line: Antiproliferative activity against human triple-negative MDA-MB-231 cells at >52.3 uM after 72 hrs by CellTiter-Glo assay. The format is functional, cell-based.
The test system of data set [5] is HepG2. The experiment in a line: Cytotoxicity against human HepG2 cells at <= 50 uM after 72 hrs by CellTiter-Glo assay. To be noted: hepg2, 72 h. Format: cell-based.
In data set [6] the test system is HEK293. The experiment in a line: Cytotoxicity against HEK293 cells at <= 50 uM after 72 hrs by CellTiter-Glo assay. Format: cell-based. The note with it: human, hek293, 72 h.
Data set [7] deals with MDA-MB-231. The experiment in a line: Antiproliferative activity against human triple-negative MDA-MB-231 cells at <= 50 uM after 72 hrs by CellTiter-Glo assay. Format: functional, cell-based.
Data set [8] concerns MDA-MB-231. The experiment in a line: Antiproliferative activity against human triple-negative MDA-MB-231 cells after 72 hrs by CellTiter-Glo assay. Format: functional, cell-based.

Molecules are shown by their SMILES. The source made the active and inactive calls. No cut-off for these calls is given here.

Turning to `Cc1csc(C(=O)NC[C@]2(C)CCC[C@]3(C)c4ccc(C(C)C)cc4CC[C@@H]23)c1`, the Activity result in the data set with HEK293 [1] and in the data set with HepG2 [3] was “Non-toxic” each time. For the same molecule, the result in the data set listed under Homo sapiens, with MDA-MB-231 [2] and with MCF7 was inactive.
With `CC(C)c1ccc2c(c1)CC[C@H]1[C@](C)(CNC(=O)c3ccc(I)cc3)CCC[C@]21C`, the Activity result in the data set with HEK293 [1] and with HepG2 [3] was “Non-toxic” in each case. Also, the outcome in the data set filed under Homo sapiens, with MDA-MB-231 [2] and with MCF7 was inactive.
Consider `CC(C)c1ccc2c(c1)CC[C@H]1[C@](C)(CNC(=O)c3ccc(-c4ccccc4)cc3)CCC[C@]21C`, for which the Activity result with HEK293 [1] and in the data set with HepG2 [3] was “Non-toxic” throughout. The outcome in the data set filed under Homo sapiens, in the data set on MDA-MB-231 [2] and in the data set with MCF7 was inactive.
Regarding `CC(C)c1ccc2c(c1)CC[C@H]1[C@](C)(CNS(=O)(=O)c3c(Cl)cc(Cl)cc3Cl)CCC[C@]21C`, the outcome in the data set with MDA-MB-231 [4] was Active.
As to `CC(C)c1ccc2c(c1)CC[C@H]1[C@](C)(CNC(=O)CC3CCCC3)CCC[C@]21C`, the Activity result in the data set with HEK293 [1] and in the data set on HepG2 [3] was “Non-toxic” each time. Besides, the result in the data set filed under Homo sapiens, in the data set with MDA-MB-231 [2] and in the data set with MCF7 was inactive.
With `CC(C)c1cc2c(c(O)c1O)[C@@]1(C(=O)O)CCCC(C)(C)[C@@H]1CC2` [CARNOSIC ACID], the Activity result in the data set on HepG2 [5] and in the data set with HEK293 [6] was “Non-toxic” each time. Besides, in the data set with MDA-MB-231 [7], the result was Active.
As to `CC(C)c1ccc2c(c1)CC[C@H]1[C@](C)(CNS(=O)(=O)c3cc(Cl)cc(Cl)c3O)CCC[C@]21C`, the result in the data set with MDA-MB-231 [4] was Active.
Take `CC(C)c1ccc2c(c1)CC[C@H]1[C@](C)(C(=O)O)CCC[C@]21C` [DEHYDROABIETIC ACID]: the Activity entry with HepG2 [5] and in the data set on HEK293 [6] was “Non-toxic” each time. Further, the outcome with MDA-MB-231 [7] was Active.
On to `CC(C)c1ccc2c(c1)CC[C@H]1[C@](C)(CNC(=O)c3c(Cl)cc(Cl)cc3Cl)CCC[C@]21C`, for which the Activity entry with HEK293 [1] and in the data set on HepG2 [3] was “Non-toxic” each time. Further, the result in the data set listed under Homo sapiens, in the data set with MDA-MB-231 [2] and in the data set with MCF7 was inactive.
As to `Cc1ccsc1C(=O)NC[C@]1(C)CCC[C@]2(C)c3ccc(C(C)C)cc3CC[C@@H]12`, the Activity entry in the data set on HEK293 [1] and with HepG2 [3] was “Non-toxic” each time. Also, the result in the data set listed under Homo sapiens, in the data set with MDA-MB-231 [2] and in the data set with MCF7 was inactive.
Take `CC(C)c1ccc2c(c1)CC[C@H]1[C@](C)(CNS(=O)(=O)c3ccc(Cl)c(Cl)c3)CCC[C@]21C`: the result in the data set with MDA-MB-231 [4] was Active.
In the case of `CC(C)c1ccc2c(c1)CC[C@H]1[C@](C)(CNC(=O)c3cccs3)CCC[C@]21C`, the Activity result in the data set on HEK293 [1] and in the data set with HepG2 [3] was “Non-toxic” in each case. For the same molecule, the result in the data set filed under Homo sapiens, with MDA-MB-231 [2] and with MCF7 was inactive.
Regarding `CC(C)c1ccc2c(c1)CC[C@H]1[C@](C)(CNC(=O)[C@@H](C)c3ccccc3)CCC[C@]21C`, the Activity result with HEK293 [1] and in the data set on HepG2 [3] was “Non-toxic” each time. Moreover, the result in the data set filed under Homo sapiens, in the data set with MDA-MB-231 [2] and in the data set with MCF7 was inactive.
On to `CC(C)c1ccc2c(c1)CC[C@H]1[C@](C)(CNC(=O)c3ccc(Cl)cc3Cl)CCC[C@]21C`, for which the Activity entry in the data set on HEK293 [1] and in the data set with HepG2 [3] was “Non-toxic” throughout. The result in the data set listed under Homo sapiens, in the data set on MDA-MB-231 [2] and in the data set on MCF7 was inactive.
With `CC(C)c1ccc2c(c1)CC[C@H]1[C@](C)(CNS(=O)(=O)c3c(F)cccc3F)CCC[C@]21C`, in the data set on MDA-MB-231 [4], the outcome was Active.
In the case of `Cc1nnsc1C(=O)NC[C@]1(C)CCC[C@]2(C)c3ccc(C(C)C)cc3CC[C@@H]12`, the Activity entry with HEK293 [1] and in the data set on HepG2 [3] was “Non-toxic” throughout. Moreover, the outcome in the data set filed under Homo sapiens, with MDA-MB-231 [2] and with MCF7 was inactive.
On to `CC(C)c1ccc2c(c1)CC[C@H]1[C@](C)(CNS(=O)(=O)c3ccc(F)cc3)CCC[C@]21C`, for which the result in the data set with MDA-MB-231 [4] was Active.
Regarding `CC(C)c1ccc2c(c1)CC[C@H]1[C@](C)(CNC(=O)c3ccc(F)cc3)CCC[C@]21C`, the Activity result in the data set on HEK293 [1] and in the data set with HepG2 [3] was “Non-toxic” in each case. Besides, the result in the data set listed under Homo sapiens, in the data set on MDA-MB-231 [2] and with MCF7 was inactive.
For the molecule `CC(C)c1ccc2c(c1)CC[C@H]1[C@](C)(CNC(=O)c3ccc(C#N)cc3)CCC[C@]21C`, the Activity result in the data set on HEK293 [1] and in the data set on HepG2 [3] was “Non-toxic” throughout. The result in the data set filed under Homo sapiens, in the data set on MDA-MB-231 [2] and in the data set with MCF7 was inactive.
As to `COc1ccc(C(=O)NC[C@]2(C)CCC[C@]3(C)c4ccc(C(C)C)cc4CC[C@@H]23)cc1`, the Activity entry in the data set on HEK293 [1] and with HepG2 [3] was “Non-toxic” each time. For the same molecule, the result in the data set listed under Homo sapiens, in the data set with MDA-MB-231 [2] and in the data set with MCF7 was inactive.
On to `CC(C)c1ccc2c(c1)CC[C@H]1[C@](C)(CN)CCC[C@]21C`, for which the Activity result in the data set on HepG2 [5] and in the data set with HEK293 [6] was “Non-toxic” each time. In addition, in the data set on MDA-MB-231 [7], the result was Active.
For the molecule `CC(C)c1ccc2c(c1)CC[C@H]1[C@](C)(CNC(=O)c3ccc(Cl)c([N+](=O)[O-])c3)CCC[C@]21C`, the Activity result in the data set with HEK293 [1] and in the data set on HepG2 [3] was “Non-toxic” each time. The outcome in the data set listed under Homo sapiens, in the data set on MDA-MB-231 [2] and with MCF7 was inactive.
As to `CC(C)c1ccc2c(c1)CC[C@H]1[C@](C)(CNC(=O)C3CCCC3)CCC[C@]21C`, the Activity entry with HEK293 [1] and in the data set with HepG2 [3] was “Non-toxic” in each case. The result in the data set filed under Homo sapiens, with MDA-MB-231 [2] and in the data set with MCF7 was inactive.
On to `CC(C)c1ccc2c(c1)CC[C@H]1[C@](C)(CNC(=O)[C@@H]3C[C@H]3c3ccccc3)CCC[C@]21C`, for which the Activity result in the data set with HEK293 [1] and in the data set on HepG2 [3] was “Non-toxic” throughout. Moreover, the outcome in the data set listed under Homo sapiens, in the data set on MDA-MB-231 [2] and in the data set on MCF7 was inactive.
Regarding `CC(C)c1ccc2c(c1)CC[C@H]1[C@](C)(CNS(=O)(=O)c3cc(F)c(F)c(F)c3)CCC[C@]21C`, the outcome in the data set with MDA-MB-231 [4] was Active.
Take `CC(C)c1ccc2c(c1)CC[C@H]1[C@](C)(CNC(=O)CSc3ccccc3)CCC[C@]21C`: the Activity entry in the data set on HEK293 [1] and with HepG2 [3] was “Non-toxic” throughout. Also, the outcome in the data set listed under Homo sapiens, in the data set on MDA-MB-231 [2] and in the data set with MCF7 was inactive.
In the case of `C=C[C@@]1(C)C=C2CC[C@@H]3[C@](C)(CCC[C@@]3(C)C(=O)O)[C@H]2CC1`, the result in the data set with MDA-MB-231 [8] was inactive.
Regarding `CC(C)c1ccc2c(c1)CC[C@H]1[C@](C)(CNS(=O)(=O)c3cccc(F)c3)CCC[C@]21C`, the outcome in the data set with MDA-MB-231 [4] was Active.
As for `CC(C)c1ccc2c(c1)CC[C@H]1[C@](C)(CNC(=O)c3cc4ccccc4o3)CCC[C@]21C`, the Activity result with HEK293 [1] and in the data set on HepG2 [3] was “Non-toxic” throughout. The result in the data set listed under Homo sapiens, in the data set with MDA-MB-231 [2] and in the data set on MCF7 was inactive.
With `CC(C)c1ccc2c(c1)CC[C@H]1[C@](C)(CNC(=O)N3CCCCC3)CCC[C@]21C`, the Activity entry with HEK293 [1] and with HepG2 [3] was “Non-toxic” throughout. Further, the outcome in the data set filed under Homo sapiens, in the data set with MDA-MB-231 [2] and with MCF7 was inactive.
On to `COc1cccc(C(=O)NC[C@]2(C)CCC[C@]3(C)c4ccc(C(C)C)cc4CC[C@@H]23)c1`, for which the Activity result in the data set on HEK293 [1] and with HepG2 [3] was “Non-toxic” in each case. Moreover, the result in the data set filed under Homo sapiens, with MDA-MB-231 [2] and in the data set on MCF7 was inactive.
In the case of `CC(C)c1ccc2c(c1)CC[C@H]1[C@](C)(CNS(=O)(=O)c3cc(Cl)cc(Cl)c3)CCC[C@]21C`, the outcome in the data set on MDA-MB-231 [4] was Active.
As for `CC(C)c1ccc2c(c1)CC[C@H]1[C@](C)(CNS(=O)(=O)c3cccc(Cl)c3Cl)CCC[C@]21C`, the outcome with MDA-MB-231 [4] was Active.
Take `CC(C)c1ccc2c(c1)CC[C@H]1[C@](C)(CNC(=O)c3ccc(C(F)(F)F)cc3)CCC[C@]21C`: the Activity result in the data set on HEK293 [1] and in the data set with HepG2 [3] was “Non-toxic” each time. The outcome in the data set listed under Homo sapiens, with MDA-MB-231 [2] and with MCF7 was inactive.
Turning to `CC(C)c1ccc2c(c1)CC[C@H]1[C@](C)(CNC(=O)C3CC4C=CC3C4)CCC[C@]21C` (some centres undefined), the Activity entry with HEK293 [1] and in the data set on HepG2 [3] was “Non-toxic” in each case. The outcome in the data set filed under Homo sapiens, in the data set on MDA-MB-231 [2] and in the data set on MCF7 was inactive.
